Assay results taken from patent publication US10344019B2 (priority 2010, dated 2019).
Like-named read-outs stand apart in the source and are kept apart here.

Assays:
Assay in all cases: microbe, parasite or virus in culture
Type in all cases: cell-based
[1] = test system: HCV 3a RLuc cells (NS5A chimeric genotype 1b Con1 replicon with consensus genotype 3a NS5A gene); details: Hepatitis C virus
Procedure, shortened: (§1)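 Replicon cells stably carrying the listed RLuc-encoding dicistronic replicons were seeded and treated with DMSO serial dilutions of compound (10 mM stocks) diluted into culture medium. After 72 h, cells were lysed and Renilla luciferase activity measured. EC50 was derived by non-linear regression.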

[2] = test system: HCV 2a JFH-1 Rluc cells (dicistronic genotype 2a JFH-1 replicon, RLuc reporter); details: Hepatitis C virus, genotype 2a JFH-1 replicon, read-out: 2a JFH
Procedure, shortened: (§2)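 Replicons used: genotype 1b Con1, 1a H77, 2a JFH-1, and a 2a JFH-1 chimera with J6-strain NS5A (M31 present), all dicistronic.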

[3] = test system: HCV 1a RLuc cells (dicistronic genotype 1a H77 replicon, RLuc reporter); details: Hepatitis C virus, read-out: 1a
Procedure, shortened: as §2

[4] = test system: HCV 1b RLuc cells (dicistronic genotype 1b Con1 replicon, RLuc reporter); details: Hepatitis C virus, read-out: 1b (nM)
Procedure, shortened: as §2

[5] = test system: HCV 4a Rluc cells (NS5A chimeric genotype 1b Con1 replicon with genotype 4a NS5A gene); details: Hepatitis C virus, read-out: 4a
Procedure, shortened: as §1

[6] = read-out: 3a, genotype 3a NS5A chimeric 1b Con1 replicon
[7] = genotype 1a H77 replicon, RLuc reporter
[8] = read-out: 3a, genotype 3a replicon
[9] = read-out: 3a, Table 2, genotype 3a NS5A chimeric replicon
[10] = 72 h, Table 2, genotype 1a H77 replicon, 72 hours

SMILES	EC50 [1, 6]	EC50 ([2]; RLuc reporter)	EC50 [3, 7]	EC50 [4]	EC50 [5]	EC50 ([4]; 72 h)	other results
COC(=O)N[C@H](C(=O)N1CCC[C@H]1c1nc2c([nH]1)-c1ccc(-c3ccc4cc(-c5cnc([C@@H]6CCCN6C(=O)[C@H](NC(=O)OC)c6ccccc6)[nH]5)ccc4c3)cc1CC2)C1CCN(C(=O)OC(C)(C)C)CC1 [Example 270]	0.001 to 0.99 nM	0.001 to 0.999 nM	0.001 to 0.999 nM	0.032 nM	0.001 to 0.99 nM	–	–
COC(=O)NC(C(=O)N1CCC[C@H]1c1ncc(-c2ccc3cc(-c4ccc(-c5cnc([C@@H]6CC(C)(Br)CN6C(=O)[C@@H](NC(=O)OC)C6CCOCC6)[nH]5)cc4)ccc3c2)[nH]1)c1ccccc1 (stereo partly drawn) [Example 205]	1 to 4.99 nM	0.001 to 0.999 nM	0.001 to 0.999 nM	0.016 nM	0.001 to 0.99 nM	–	–
COC(=O)N[C@H](C(=O)N1[C@@H]2CC[C@@H](C2)[C@H]1c1ncc(-c2ccc(-c3ccc4c(ccc5nc([C@@H]6CCCN6C(=O)[C@H](NC(=O)OC)c6ccccc6)[nH]c54)c3)cc2F)[nH]1)C(C)C [Example 312]	–	–	–	0.011 nM	0.001 to 0.99 nM	–	EC50 [1, 8]: 0.001 to 0.99 nM; EC50 [2]: 0.001 to 0.999 nM; EC50 ([3]; genotype 1a replicon): 1 to 44 nM
COC(=O)N[C@H](C(=O)N1CCC[C@H]1c1nc2ccc3cc(-c4ccc(-c5cnc([C@@H]6[C@H]7CC[C@H](C7)N6C(=O)[C@@H](NC(=O)OC)[C@@H](C)OC)[nH]5)c(F)c4)ccc3c2[nH]1)C(C)C [Example 100]	–	–	–	–	0.001 to 0.99 nM	0.004 nM	EC50 [1, 9]: 0.001 to 0.99 nM; EC50 ([2]; 72 h, Table 2, 72 hours): 0.001 to 0.999 nM; EC50 [3, 10]: 0.001 to 0.999 nM
COC(=O)N[C@H](C(=O)N1CC(F)(F)C[C@H]1c1ncc(-c2ccc(-c3ccc4cc(-c5cnc([C@@H]6CCCN6C(=O)[C@H](NC(=O)OC)c6ccccc6)[nH]5)ccc4c3)cc2)[nH]1)[C@@H](C)OC [Example 263]	0.001 to 0.99 nM	0.001 to 0.999 nM	0.001 to 0.999 nM	0.006 nM	0.001 to 0.99 nM	–	–
CC#Cc1cc(-c2cnc([C@@H]3CCCN3C(=O)[C@@H](NC(=O)OC)C(C)C)[nH]2)ccc1-c1ccc(-c2cnc([C@@H]3CCCN3C(=O)[C@H](NC(=O)OC)c3ccccc3)[nH]2)cc1 [Example 348]	–	–	–	0.011 nM	0.001 to 0.99 nM	–	EC50 [1, 8]: 0.001 to 0.99 nM; EC50 [2]: 0.001 to 0.999 nM; EC50 ([3]; genotype 1a replicon): 0.001 to 0.999 nM
COC(=O)NC(C(=O)N1CCC[C@@H]1c1nc(-c2ccc3c(c2)C(F)(F)c2cc(-c4ccc5nc([C@@H]6[C@H]7CC[C@H](C7)N6C(=O)[C@H](NC(=O)OC)c6ccccc6)[nH]c5c4)ccc2-3)c[nH]1)[C@@H](C)OC (stereo partly drawn) [Example 81]	–	–	–	–	0.001 to 0.99 nM	0.006 nM	EC50 [1, 9]: 0.001 to 0.99 nM; EC50 ([2]; 72 h, Table 2, 72 hours): 0.001 to 0.999 nM; EC50 [3, 10]: 0.001 to 0.999 nM
COC(=O)N[C@H](C(=O)N1CCC[C@H]1c1ncc(-c2ccc3c(c2)cc(C#N)c2cc(-c4cnc([C@@H]5CCCN5C(=O)[C@@H](NC(=O)OC)C(C)C)[nH]4)ccc23)[nH]1)C(C)C [Example 274]	1 to 4.99 nM	1 to 44 nM	1 to 44 nM	0.011 nM	0.001 to 0.99 nM	–	–
COC(=O)N[C@H](C(=O)N1[C@@H]2CC[C@@H](C2)[C@H]1c1ncc(-c2ccc3cc(-c4ccc5c(ccc6nc([C@@H]7CCCN7C(=O)[C@H](NC(=O)OC)c7ccccc7)[nH]c65)c4)ccc3c2)[nH]1)[C@@H](C)OC [Example 102]	–	–	–	–	0.001 to 0.99 nM	0.009 nM	EC50 [1, 9]: 0.001 to 0.99 nM; EC50 ([2]; 72 h, Table 2, 72 hours): 0.001 to 0.999 nM; EC50 [3, 10]: 0.001 to 0.999 nM
COC(=O)N[C@H](C(=O)N1CCC[C@H]1c1ncc(-c2ccc3cc(-c4ccc(-c5cnc([C@@H]6CC(O)CN6C(=O)[C@H](NC(=O)OC)c6ccccc6)[nH]5)cc4)ccc3c2)[nH]1)C(C)C (stereo partly drawn) [Example 256]	0.001 to 0.99 nM	0.001 to 0.999 nM	0.001 to 0.999 nM	0.015 nM	0.001 to 0.99 nM	–	–
COC(=O)N[C@H](C(=O)N1CCC[C@H]1c1nc2c([nH]1)-c1ccc(-c3ccc4cc(-c5cnc([C@@H]6CCCN6C(=O)[C@H](NC(=O)C(C)(C)O)c6ccccc6)[nH]5)ccc4c3)cc1CC2)C(C)C [Example 244]	0.001 to 0.99 nM	0.001 to 0.999 nM	0.001 to 0.999 nM	0.014 nM	0.001 to 0.99 nM	–	–
COC(=O)N[C@H](C(=O)N1CCC[C@H]1c1ncc(-c2ccc3c(c2)COc2c-3ccc3cc(-c4cnc([C@@H]5CCCN5C(=O)[C@H](NC(=O)OC)c5ccccc5)[nH]4)ccc23)[nH]1)C1CCOCC1 [Example 4]	–	–	–	–	0.001 to 0.99 nM	0.11 nM	EC50 ([1]; read-out: 3a, Table 1, genotype 3a NS5A chimeric replicon): 0.001 to 0.99 nM; EC50 ([2]; 72 h, Table 1, 72 hours): 0.001 to 0.999 nM; EC50 ([3]; 72 h, Table 1, genotype 1a H77 replicon, 72 hours): 0.001 to 0.999 nM
